Reference: patent US9718774B2, “Indole carboxamide derivatives as P2X7 receptor antagonist” (ACTELION PHARMACEUTICALS LTD, priority 2012, dated 2017)
pIC50: −log10 of the molar value. Like-named read-outs stand apart in the source and are kept apart here.

Target: T1, human recombinant P2X7 receptor (Homo sapiens, UniProt Q99572)
T1 construct: expressed in transfected cells
T1 sequence (Q99572 1-595): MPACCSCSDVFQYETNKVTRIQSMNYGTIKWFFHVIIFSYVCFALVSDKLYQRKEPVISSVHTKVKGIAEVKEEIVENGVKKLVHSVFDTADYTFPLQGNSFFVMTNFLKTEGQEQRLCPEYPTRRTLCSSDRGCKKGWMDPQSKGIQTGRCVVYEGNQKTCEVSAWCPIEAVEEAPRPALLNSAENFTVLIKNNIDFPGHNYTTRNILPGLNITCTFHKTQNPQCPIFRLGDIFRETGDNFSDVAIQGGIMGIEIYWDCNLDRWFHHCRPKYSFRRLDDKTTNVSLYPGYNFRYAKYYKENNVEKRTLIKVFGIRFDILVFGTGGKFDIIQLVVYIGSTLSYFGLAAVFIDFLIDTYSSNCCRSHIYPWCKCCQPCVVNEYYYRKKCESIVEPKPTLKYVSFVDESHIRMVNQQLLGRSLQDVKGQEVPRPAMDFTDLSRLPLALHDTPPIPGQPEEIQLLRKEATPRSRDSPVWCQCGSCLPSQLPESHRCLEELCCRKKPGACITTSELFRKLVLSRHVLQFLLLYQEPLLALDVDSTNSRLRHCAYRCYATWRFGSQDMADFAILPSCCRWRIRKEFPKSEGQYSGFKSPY
Assay: YO-PRO assay: P2X7 receptor antagonistic activity in HEK cells stably expressing P2X7
Type: cell-based
Method: The P2X7 receptor antagonistic activity of the compounds of formula (I) is determined in accordance with the following experimental method.
Cell Line Generation and YO-PRO Assay
Cell line generation was performed in general according to established molecular cloning protocols. Specifically, RNA was extracted from human whole blood using the Qiagen RNeasy kit (Qiagen, CH) according to the manufacturer's instructions. Subsequently cDNA was made (Superscript II, Invitrogen AG, CH) and the human P2X7 gene (genbank ref. BC011913) was amplified with the following primers: […] and […]. The amplified sequence was subsequently ligated into a pcDNA3.1 (+) NotI, NheI digested plasmid. Human embryonic kidney (HEK) cells (ATCC CRL—1573, Manassas, Va., USA) were transfected with the pcDNA3.1 (+).hP2X7 plasmid using lipofectamine 2000 (Invitrogen AG, CH) according to the manufacturer's instructions. Following a 24 h exposure to DNA, cells were trypsinized and re-seeded at low density in the presence of 250 μg Geneticin. Geneticin resistant cells were then selected during two consecutive rounds of cloning by serial limiting dilution with visual inspection. Individual clones were screened for P2X7 expression by applying ATP and recording the resultant uptake of YO-PRO1. Specific cell clones were chosen based on RNA and protein expression. HEK cells stably expressing P2X7 were used to screen drugs using the YO-PRO1 assay. Cells were grown to confluency in adherent culture at 37° C. in a humidified 5% CO2 incubator (split 1/5 every 3-4 days with DMEM, 10% FCS, 1% Penicillin/Streptomycin, 250 μg/ml Geneticin). Adherent cells were detached by incubation with Trypsine (1 ml per 165 cm^2 dish) for 2 minutes, then washed off with 10 ml PBS (without Mg^2+ and Ca^2+), and resuspended in DMEM, 10% FCS, 1% Penicillin/Streptomycin, no Geneticin. 10′000 cells per well (48 hours before the assay) or 25′000 cells per well (Vi-cell XR (Beckman Coulter) (24 hours before the assay) in 50 μl full medium were seeded on 384-well black-wall, clear bottom plates, that were coated before with 10 μl per well Poly-L-Lysine, incubated for 30-60 minutes at 37° C. and washed once with PBS. Medium was removed from cells and 50 μl of assay buffer containing 0.5 μM YO-PRO-1 was added into the wells. Solutions of antagonist compounds were prepared by serial dilutions of a 10 mM DMSO solution of the antagonist into PBS using a BioMek (Beckman Coulter). Each concentration was performed in duplicate. For IC50 measurements 10 concentration points were measured (10 μM being the highest concentration followed by 9 serial dilution steps 1/3). The cells were incubated with the antagonists of the present invention together with ATP at a final concentration of 250 μM for 90 minutes. During this time period, four time points were taken. Each time point comprised the average of several measurements made within a few seconds. Fluorescence was measured in the FLIPR tetra (Molecular Devices) using the filters appropriate for YO-PRO-1 fluorescence (excitation 485/20, emission 530/25). The FLIPR tetra was equipped with Molecular Devices Screen Works system control software to define and run experimental protocols. […] For IC50 measurements the maximum intensity is plotted against the concentration of compound to determine IC50 values.

[1] = antagonistic activity with respect to the P2X7 receptor, read-out: IC50

Row | SMILES | pIC50 [1] | pIC50 (IC50, antagonistic activity with respect to the P2X7 receptor)
1 | Cc1ncc(C(CNC(=O)c2ccc3[nH]ccc3c2Cl)NCC2CCCC2)cn1 (racemic) [Example 84, rac-4-Chloro-1H-indole-5-carboxylic acid [2-(cyclopentylmethyl-amino)-2-(2-methyl-pyrimidin-5-yl)-ethyl]-amide] | 5.83 | 
2 | O=C(NCC(c1cccnn1)N1CCCCC1)c1ccc2[nH]ccc2c1Cl (racemic) [Example 73, rac-4-Chloro-1H-indole-5-carboxylic acid (2-piperidin-1-yl-2-pyridazin-3-yl-ethyl)-amide] | 5.99 | 
3 | O=C(NCC(c1ccnc(O)c1)N1CCOCC1)c1ccc2[nH]ccc2c1Cl (racemic) [Example 91, rac-4-Chloro-1H-indole-5-carboxylic acid [2-morpholin-4-yl-2-(2-hydroxypyridin-4-yl)-ethyl]-amide] | 6.45 | 
4 | Cc1ncc(C(CNC(=O)c2ccc3[nH]ccc3c2Cl)N2CCC(F)(F)C2)cn1 (racemic) [Example 82, rac-4-Chloro-1H-indole-5-carboxylic acid [2-(3,3-difluoro-pyrrolidin-1-yl)-2-(2-methyl-pyrimidin-5-yl)-ethyl]-amide] | 7.47 | 
5 | Cc1noc(C)c1C(CNC(=O)c1ccc2[nH]ccc2c1Cl)N1CCCCC1 (racemic) [Example 54, rac-4-Chloro-1H-indole-5-carboxylic acid [2-(3,5-dimethyl-isoxazol-4-yl)-2-piperidin-1-yl-ethyl]-amide] | 5.73 | 
6 | Cc1ncc(C(CNC(=O)c2ccc3[nH]ccc3c2Cl)OC2CCCCC2)cn1 (racemic) [Example 69, rac-4-Chloro-1H-indole-5-carboxylic acid [2-cyclohexyloxy-2-(2-methyl-pyrimidin-5-yl)-ethyl]-amide] | 7.21 | 
7 | Cc1cnc(C(CNC(=O)c2ccc3[nH]ccc3c2Cl)N2CCCCC2)cn1 (racemic) [Example 60, rac-4-Chloro-1H-indole-5-carboxylic acid [2-(5-methyl-pyrazin-2-yl)-2-piperidin-1-yl-ethyl]-amide] | 6.63 | 
8 | Cc1ncc(C(CNC(=O)c2ccc3[nH]ccc3c2Cl)N2CC3CC(C2)O3)cn1 (stereo not drawn) [Example 95, 4-Chloro-1H-indole-5-carboxylic acid [2-(2-methyl-pyrimidin-5-yl)-2-(6-oxa-3-aza-bicyclo[3.1.1]hept-3-yl)-ethyl]-amide] |  | 7.55
9 | Cc1noc(C)c1C(CNC(=O)c1ccc2[nH]ccc2c1Cl)N1CCOCC1 (racemic) [Example 53, rac-4-Chloro-1H-indole-5-carboxylic acid [2-(3,5-dimethyl-isoxazol-4-yl)-2-morpholin-4-yl-ethyl]-amide] | 5.70 | 
10 | Cc1ncc(C(CNC(=O)c2ccc3[nH]c(C)cc3c2Cl)N2CCOCC2)cn1 (racemic) [Example 72, rac-4-Chloro-2-methyl-1H-indole-5-carboxylic acid [2-(2-methyl-pyrimidin-5-yl)-2-morpholin-4-yl-ethyl]-amide] | 6.33 | 
11 | Cc1ncc(C(CNC(=O)c2ccc3[nH]ccc3c2Cl)N(C)C)cn1 (racemic) [Example 12, rac-4-Chloro-1H-indole-5-carboxylic acid [2-dimethylamino-2-(2-methyl-pyrimidin-5-yl)-ethyl]-amide] | 5.64 | 
12 | Cn1cc(C(CNC(=O)c2ccc3[nH]ccc3c2Cl)N2CCOCC2)cn1 (racemic) [Example 28, rac-4-Chloro-1H-indole-5-carboxylic acid [2-(1-methyl-1H-pyrazol-4-yl)-2-morpholin-4-yl-ethyl]-amide] | 7.18 | 
13 | Cc1ncc(C(CNC(=O)c2ccc3[nH]ccc3c2Cl)NCC(C)C)cn1 (racemic) [Example 85, rac-4-Chloro-1H-indole-5-carboxylic acid [2-isobutylamino-2-(2-methyl-pyrimidin-5-yl)-ethyl]-amide] | 6.52 | 
14 | CC(C)CC(CNC(=O)c1ccc2[nH]ccc2c1Cl)c1ccc(Cl)nc1 (racemic) [Example 66, rac-4-Chloro-1H-indole-5-carboxylic acid [2-(6-chloro-pyridin-3-yl)-4-methyl-pentyl]-amide] | 7.49 | 
15 | Cc1ncc(C(CNC(=O)c2ccc3[nH]ccc3c2Cl)N2CCC(C)CC2)cn1 (racemic) [Example 76, rac-4-Chloro-1H-indole-5-carboxylic acid [2-(4-methyl-piperidin-1-yl)-2-(2-methyl-pyrimidin-5-yl)-ethyl]-amide] | 6.46 | 

Continued by rising pIC50 [1], values first:

Row | pIC50 [1] | pIC50 (IC50, antagonistic activity with respect to the P2X7 receptor) | SMILES
16 | 7.49 |  | O=C(NCC(c1cccnc1)N1CCOCC1)c1ccc2[nH]ccc2c1Cl (racemic) [Example 25, rac-4-Chloro-1H-indole-5-carboxylic acid (2-morpholin-4-yl-2-pyridin-3-yl-ethyl)-amide]
17 | 7.52 |  | CCc1c(C(=O)NCC(c2cnc(C)nc2)N2CCOCC2)ccc2[nH]ccc12 (racemic) [Example 101, rac-4-Ethyl-1H-indole-5-carboxylic acid [2-(2-methyl-pyrimidin-5-yl)-2-morpholin-4-yl-ethyl]-amide]
18 | 7.60 |  | COc1cc(C(=O)NCC(c2cnc(C)nc2)N2CCOCC2)c(C)c2cc[nH]c12 (racemic) [Example 109, rac-7-Methoxy-4-methyl-1H-indole-5-carboxylic acid [2-(2-methyl-pyrimidin-5-yl)-2-morpholin-4-yl-ethyl]-amide]
19 | 7.72 |  | O=C(NCC(c1cc(F)cc(F)c1)N1CCOCC1)c1ccc2[nH]ccc2c1Cl (racemic) [Example 18, rac-4-Chloro-1H-indole-5-carboxylic acid [2-(3,5-difluoro-phenyl)-2-morpholin-4-yl-ethyl]-amide]
20 | 7.96 |  | Cc1ncc(C(CNC(=O)c2cc(Cl)c3[nH]ccc3c2C)N2CCOCC2)cn1 (racemic) [Example 108, rac-7-Chloro-4-methyl-1H-indole-5-carboxylic acid [2-(2-methyl-pyrimidin-5-yl)-2-morpholin-4-yl-ethyl]-amide]
21 | 8.00 |  | O=C(NCC(c1cncnc1)N1CCOCC1)c1ccc2[nH]ccc2c1Cl (racemic) [Example 26, rac-4-Chloro-1H-indole-5-carboxylic acid (2-morpholin-4-yl-2-pyrimidin-5-yl-ethyl)-amide]
22 | 8.03 |  | Cc1ncc(C(CNC(=O)c2ccc3[nH]ccc3c2Cl)N2CCOCC2)cn1 (single isomer, unassigned) [Example 4, 4-Chloro-1H-indole-5-carboxylic acid [2-(2-methyl-pyrimidin-5-yl)-2-morpholin-4-yl-ethyl]-amide]
23 | 8.10 |  | Cc1ncc(C(CNC(=O)c2ccc3[nH]ccc3c2Cl)N2CCOCC2)cn1 (single isomer, unassigned) [Example 3, 4-Chloro-1H-indole-5-carboxylic acid [2-(2-methyl-pyrimidin-5-yl)-2-morpholin-4-yl-ethyl]-amide]
24 | 8.10 |  | Cc1ncc(C(CNC(=O)c2ccc3[nH]ccc3c2Cl)N2CCC(F)(F)CC2)cn1 (single isomer, unassigned) [Example 5, 4-Chloro-1H-indole-5-carboxylic acid [2-(4,4-difluoro-piperidin-1-yl)-2-(2-methyl-pyrimidin-5-yl)-ethyl]-amide]
